Data reported in patent EP4610269A1, “UROKINASE PLASMINOGEN ACTIVATOR SURFACE RECEPTOR (UPAR) LIGANDS FOR DIAGNOSTIC OR THERAPEUTIC USE” (3B Pharmaceuticals GmbH, priority 2024, dated 2025).
Where a SMILES comes first, the peptide text is derived from it. Bridges are numbered along the chain shown (N, C = ends). [ ]: non-standard residue; d: D form. The star is where a group is joined. DOTA = O=C(O)CN1CCN(CC(=O)O)CCN(CC(=O)*)CCN(CC(=O)O)CC1; Phe(4-CONH2) = NC(=O)c1ccc(C[C@H](N)C(=O)O)cc1; Pro(cis-4-F) = O=C(O)[C@@H]1C[C@H](F)CN1; Hyp = O=C(O)[C@@H]1C[C@@H](O)CN1; Butoxycarbonyl = CCCCOC(=O)*; Orn = NCCC[C@H](N)C(=O)O; Nva = CCC[C@H](N)C(=O)O

Columns and labels:
[1] = molecular target: T1, uPAR-expressing HEC-265 human endometrial adenocarcinoma cells (Homo sapiens, UniProt Q03405); assay: Competitive FACS binding assay; settings: pIC50 category of FACS binding
T1 construct: Cell surface uPAR-expressing HEC-265 human endometrial adenocarcinoma cells; host or cells: HEC-265
How it was run: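 HEC-265 cells incubated 1 h at 4 °C with 10 nM biotinylated uPAR peptide tracer plus increasing test compound, then stained with APC-streptavidin on ice. Median APC fluorescence by flow cytometry; 4PL fit gives pIC50.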

[2] = Plasma stability assay (human plasma); assay type: in vitro ADME; settings: human plasma (sodium citrate 3.7%), 37°C, LC-MS quantification, read-out: % intact compound remaining after 6h incubation Human plasma
Procedure: In order to determine the stability of selected compounds of the invention in human and mouse plasma, a plasma stability assay was carried out. Such plasma stability assay measures degradation of compounds of the present invention in blood plasma. This is an important characteristic of a compound as compounds, with the exception of pro-drugs, which rapidly degrade in plasma, generally show poor in vivo efficacy. […] The stability is sufficient for the diagnostic, therapeutic and theragnostic use of these compounds according to the present invention.
The plasma stability samples were prepared by spiking 50 µl plasma aliquots (all sodium citrate 3.7%) with 1 µl of a 0.5 mM compound stock solution in DMSO. After vortexing the samples were incubated in a Thermomixer at 37°C for 0 and 6 hours. After incubation the samples were stored on ice until further treatment. All samples were prepared in duplicates.
A suitable internal standard was added to each sample (1 µl of a 0.5 mM stock solution in DMSO). Protein precipitation was performed using two different methods depending on the compound conditions as indicated in Table 13. • A) 250 µl of acetonitrile containing 1% trifluoroacetic acid was added. […]
Quantitation was performed by external matrix calibration with internal standard using the integrated analyte signals.
Additionally, recovery was determined by spiking a pure plasma sample that only contained the internal standard after treatment with a certain amount of the compound.
Carry-over was evaluated by analysis of a blank sample (20% acetonitrile) after the highest calibration sample.
The result is stated as "% intact compound remaining after 6 h incubation" and means that from the amount of material at the start of the experiment the stated percentage is detected as unchanged material at the end of the experiment by LC-MS quantification. […]

[3] = Plasma stability assay (mouse plasma); assay type: in vitro ADME; settings: mouse plasma (sodium citrate 3.7%), 37°C, LC-MS quantification, read-out: % intact compound remaining after 6h incubation Mouse plasma
How it was run: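 Compound from a 0.5 mM DMSO stock was spiked into sodium-citrate human or mouse plasma and incubated at 37°C for 0 and 6 h in duplicate. After protein precipitation with internal standard, intact compound was quantified by UHPLC-Q-TOF MS (positive ESI) against matrix calibration, reported as % remaining after 6 h.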

T1 sequence (Q03405 23-335): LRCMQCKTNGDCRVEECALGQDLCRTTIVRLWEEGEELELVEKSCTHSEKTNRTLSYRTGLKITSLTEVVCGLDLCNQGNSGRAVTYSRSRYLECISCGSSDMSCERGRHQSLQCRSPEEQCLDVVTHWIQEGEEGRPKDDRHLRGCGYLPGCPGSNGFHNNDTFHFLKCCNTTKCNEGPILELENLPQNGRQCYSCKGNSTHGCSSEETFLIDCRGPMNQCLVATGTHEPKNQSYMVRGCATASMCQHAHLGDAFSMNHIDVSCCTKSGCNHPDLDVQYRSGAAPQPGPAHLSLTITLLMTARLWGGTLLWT

In the case of `CCCCOC(=O)N[C@H]1CSSC[C@@H](C(N)=O)NC(=O)[C@H](CCC)NC(=O)[C@H]([C@@H](C)CC)NC(=O)[C@@H]2C[C@@H](O)CN2C(=O)[C@@H]2C[C@H](F)CN2C(=O)[C@H](Cc2ccccc2)NC(=O)[C@H](Cc2ccc(C(N)=O)cc2)NC(=O)[C@H](CCCNC(=O)CN2CCN(CC(=O)O)CCN(CC(=O)O)CCN(CC(=O)O)CC2)NC(=O)[C@H]([C@@H](C)O)NC1=O` [UPAR-276, Butoc-[Cys-Thr-Orn(DOTA)-Pcnf-Phe-4Cfp-Hyp-Ile-Nva-Cys]-NHz] (Butoxycarbonyl-CT[Orn](DOTA)[Phe(4-CONH2)]F[Pro(cis-4-F)][Hyp]I[Nva]C-NH2; disulfide 1-10), the IC50 [1] is reported as no more than 10 nM, the remaining at 6 h, 9.8 µM [2] is reported as greater than 95% and the remaining at 6 h, 9.8 µM [3] is reported as 89%.
